Test results reported in patent US9623028B2, “Methods of treating a cancer using substituted pyrrolopyrimidine compounds, compositions thereof” (Signal Pharmaceuticals, LLC, priority 2014, dated 2017).
Read-outs that look alike come from different tables or passages of the source.

Columns and labels:
CLK2 = CLK2 (Homo sapiens (Human), UniProt P49760); assay: biochemical; conditions: read-out: CLK2 (% Inh.), % inhibition at 3 μM
CLK1 = CLK1 (Homo sapiens (Human), UniProt P49759); assay: biochemical; conditions: read-out: CLK1 (% Inh.), % inhibition at 3 μM
[1] = test system: non small cell lung cancer (NSCLC) cell lines; assay: cells
breast cancer cell lines = assay: cells; conditions: for IC50: read-out: Growth Inhibition IC50; for GI50: read-out: Growth inhibition GI50
[2] = Homo sapiens, MDA-MB-175-VII, 96 h

CLK2, sequence (P49760 whole entry): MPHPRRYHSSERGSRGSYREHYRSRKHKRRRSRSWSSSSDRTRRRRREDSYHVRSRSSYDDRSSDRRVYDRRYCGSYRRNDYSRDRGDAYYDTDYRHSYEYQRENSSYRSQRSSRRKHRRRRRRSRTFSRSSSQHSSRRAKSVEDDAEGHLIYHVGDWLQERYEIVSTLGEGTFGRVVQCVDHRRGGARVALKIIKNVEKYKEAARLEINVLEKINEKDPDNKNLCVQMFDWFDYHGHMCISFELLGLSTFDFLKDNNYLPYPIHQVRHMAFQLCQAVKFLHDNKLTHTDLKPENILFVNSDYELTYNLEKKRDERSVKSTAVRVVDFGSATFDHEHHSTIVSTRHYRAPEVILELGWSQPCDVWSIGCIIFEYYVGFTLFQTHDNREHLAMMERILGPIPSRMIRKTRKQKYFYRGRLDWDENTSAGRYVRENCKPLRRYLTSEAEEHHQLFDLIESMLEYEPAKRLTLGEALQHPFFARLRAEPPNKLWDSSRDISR
CLK1, sequence (P49759 whole entry): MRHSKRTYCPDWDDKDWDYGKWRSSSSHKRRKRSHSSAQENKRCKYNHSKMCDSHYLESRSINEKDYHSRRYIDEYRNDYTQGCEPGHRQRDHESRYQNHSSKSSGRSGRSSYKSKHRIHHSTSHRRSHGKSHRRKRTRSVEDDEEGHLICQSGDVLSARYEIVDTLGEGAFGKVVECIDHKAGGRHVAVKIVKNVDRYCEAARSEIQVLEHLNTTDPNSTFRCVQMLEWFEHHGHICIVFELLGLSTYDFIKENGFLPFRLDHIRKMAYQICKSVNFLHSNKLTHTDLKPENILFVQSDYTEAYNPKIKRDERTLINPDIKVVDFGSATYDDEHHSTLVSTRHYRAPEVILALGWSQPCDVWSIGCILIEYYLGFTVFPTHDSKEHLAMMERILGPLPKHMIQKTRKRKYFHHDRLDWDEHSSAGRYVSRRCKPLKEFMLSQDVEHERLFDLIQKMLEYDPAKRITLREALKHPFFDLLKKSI

inhibition at 3 µM (CLK2): 104%
inhibition at 3 µM (CLK1): 91%
IC50 ([1]; Homo sapiens, A549, 72 h, read-out: Average IC50 (μM)): 0.05 µM
IC50 ([1]; Homo sapiens, HOP-62, 72 h, read-out: Average IC50 (μM)): 0.05 µM
IC50 ([1]; Homo sapiens, HOP-92, 72 h, read-out: Average IC50 (μM)): 1.27 µM
IC50 ([1]; Homo sapiens, NCI-H441, 72 h, read-out: Average IC50 (μM)): 2.1 µM
IC50 ([1]; Homo sapiens, NCI-H460, 72 h, read-out: Average IC50 (μM)): 0.04 µM
IC50 ([1]; Homo sapiens, NCI-H1299, 72 h, read-out: Average IC50 (μM)): 0.36 µM
IC50 ([1]; Homo sapiens, NCI-H1437, 72 h, read-out: Average IC50 (μM)): 0.39 µM
IC50 ([1]; Homo sapiens, NCI-H1563, 72 h, read-out: Average IC50 (μM)): 1.77 µM
IC50 ([1]; Homo sapiens, NCI-H1650, 72 h, read-out: Average IC50 (μM)): 0.62 µM
IC50 ([1]; Homo sapiens, NCI-H1734, 72 h, read-out: Average IC50 (μM)): 0.91 µM
IC50 ([1]; Homo sapiens, NCI-H1838, 72 h, read-out: Average IC50 (μM)): 16.1 µM
IC50 ([1]; Homo sapiens, NCI-H2228, 72 h, read-out: Average IC50 (μM)): 1.58 µM
IC50 ([1]; Homo sapiens, NCI-H2291, 72 h, read-out: Average IC50 (μM)): 16.3 µM
IC50 ([1]; Homo sapiens, SK-LU-1, 72 h, read-out: Average IC50 (μM)): 0.83 µM
IC50 ([1]; Homo sapiens, SW1573, 72 h, read-out: Average IC50 (μM)): 0.96 µM
IC50 ([1]; read-out: growth inhibition IC50 values): ≤ 2 µM
IC50 (breast cancer cell lines; EFM-192A, 96 h): 10 µM
GI50 (breast cancer cell lines; EFM-192A, 96 h): 10 µM
IC50 (breast cancer cell lines; HCC202, 96 h): 16 µM
GI50 (breast cancer cell lines; HCC202, 96 h): 15 µM
GI50 (breast cancer cell lines; HCC1500, 96 h): 0.053 µM
IC50 (breast cancer cell lines; Homo sapiens, AU565, 96 h): 1.1 µM
GI50 (breast cancer cell lines; Homo sapiens, AU565, 96 h): 0.426 µM
IC50 (breast cancer cell lines; Homo sapiens, BT-20, 96 h): 0.608 µM
GI50 (breast cancer cell lines; Homo sapiens, BT-20, 96 h): 0.289 µM
IC50 (breast cancer cell lines; Homo sapiens, BT-474, 96 h): 16.3 µM
GI50 (breast cancer cell lines; Homo sapiens, BT-474, 96 h): 6.02 µM
IC50 (breast cancer cell lines; Homo sapiens, BT-483, 96 h): 10 µM
GI50 (breast cancer cell lines; Homo sapiens, BT-483, 96 h): 0.704 µM
IC50 (breast cancer cell lines; Homo sapiens, BT-549, 96 h): 0.18 µM
GI50 (breast cancer cell lines; Homo sapiens, BT-549, 96 h): 0.085 µM
IC50 (breast cancer cell lines; Homo sapiens, CAL-51, 96 h): 0.009 µM
GI50 (breast cancer cell lines; Homo sapiens, CAL-51, 96 h): 0.008 µM
IC50 (breast cancer cell lines; Homo sapiens, CAL-85-1, 96 h): 0.076 µM
GI50 (breast cancer cell lines; Homo sapiens, CAL-85-1, 96 h): 0.025 µM
IC50 (breast cancer cell lines; Homo sapiens, CAL-120, 96 h): 10 µM
GI50 (breast cancer cell lines; Homo sapiens, CAL-120, 96 h): 10 µM
IC50 (breast cancer cell lines; Homo sapiens, CAMA-1, 96 h): 10.7 µM
GI50 (breast cancer cell lines; Homo sapiens, CAMA-1, 96 h): 4.9 µM
IC50 (breast cancer cell lines; Homo sapiens, DU-4475, 96 h): 0.56 µM
GI50 (breast cancer cell lines; Homo sapiens, DU-4475, 96 h): 0.082 µM
IC50 (breast cancer cell lines; Homo sapiens, EFM-19, 96 h): 0.73 µM
GI50 (breast cancer cell lines; Homo sapiens, EFM-19, 96 h): 0.067 µM
IC50 (breast cancer cell lines; Homo sapiens, HCC38, 96 h): 0.047 µM
GI50 (breast cancer cell lines; Homo sapiens, HCC38, 96 h): 0.017 µM
IC50 (breast cancer cell lines; Homo sapiens, HCC1143, 96 h): 17.5 µM
GI50 (breast cancer cell lines; Homo sapiens, HCC1143, 96 h): 0.286 µM
IC50 (breast cancer cell lines; Homo sapiens, HCC1187, 96 h): 0.881 µM
GI50 (breast cancer cell lines; Homo sapiens, HCC1187, 96 h): 0.47 µM
IC50 (breast cancer cell lines; Homo sapiens, HCC1428, 96 h): 4.97 µM
GI50 (breast cancer cell lines; Homo sapiens, HCC1428, 96 h): 1.09 µM
IC50 (breast cancer cell lines; Homo sapiens, HCC1569, 96 h): 5.43 µM
GI50 (breast cancer cell lines; Homo sapiens, HCC1569, 96 h): 0.073 µM
IC50 (breast cancer cell lines; Homo sapiens, HCC1937, 96 h): 10 µM
GI50 (breast cancer cell lines; Homo sapiens, HCC1937, 96 h): 7.46 µM
IC50 (breast cancer cell lines; Homo sapiens, HCC1954, 96 h): 0.482 µM
GI50 (breast cancer cell lines; Homo sapiens, HCC1954, 96 h): 0.131 µM
IC50 (breast cancer cell lines; Homo sapiens, HCC2157, 96 h): 0.12 µM
GI50 (breast cancer cell lines; Homo sapiens, HCC2157, 96 h): 0.024 µM
IC50 (breast cancer cell lines; Homo sapiens, Hs-578T, 96 h): 0.183 µM
GI50 (breast cancer cell lines; Homo sapiens, Hs-578T, 96 h): 0.104 µM
IC50 (breast cancer cell lines; Homo sapiens, MCF7, 96 h): 0.17 µM
GI50 (breast cancer cell lines; Homo sapiens, MCF7, 96 h): 0.124 µM
IC50 (breast cancer cell lines; Homo sapiens, MCF-12A, 96 h): 3.15 µM
GI50 (breast cancer cell lines; Homo sapiens, MCF-12A, 96 h): 0.486 µM
GI50 (breast cancer cell lines; Homo sapiens, MDA-MB-134-VI, 96 h): 0.874 µM
IC50 (breast cancer cell lines; Homo sapiens, MDA-MB-157, 96 h): 0.695 µM
GI50 (breast cancer cell lines; Homo sapiens, MDA-MB-157, 96 h): 0.225 µM
IC50 (breast cancer cell lines; [2]): 8.5 µM
GI50 (breast cancer cell lines; [2]): 0.4 µM
IC50 (breast cancer cell lines; Homo sapiens, MDA-MB-231, 96 h): 0.038 µM
GI50 (breast cancer cell lines; Homo sapiens, MDA-MB-231, 96 h): 0.022 µM
IC50 (breast cancer cell lines; Homo sapiens, MDA-MB-361, 96 h): 18.8 µM
GI50 (breast cancer cell lines; Homo sapiens, MDA-MB-361, 96 h): 5.48 µM
IC50 (breast cancer cell lines; Homo sapiens, MDA-MB-415, 96 h): 13.5 µM
GI50 (breast cancer cell lines; Homo sapiens, MDA-MB-415, 96 h): 11.7 µM
IC50 (breast cancer cell lines; Homo sapiens, MDA-MB-436, 96 h): 2.1 µM
GI50 (breast cancer cell lines; Homo sapiens, MDA-MB-436, 96 h): 1.38 µM
IC50 (breast cancer cell lines; Homo sapiens, MDA-MB-453, 96 h): 2.79 µM
GI50 (breast cancer cell lines; Homo sapiens, MDA-MB-453, 96 h): 0.799 µM
IC50 (breast cancer cell lines; Homo sapiens, MDA-MB-468, 96 h): 0.032 µM
GI50 (breast cancer cell lines; Homo sapiens, MDA-MB-468, 96 h): 0.027 µM
IC50 (breast cancer cell lines; Homo sapiens, SK-BR-3, 96 h): 3.69 µM
GI50 (breast cancer cell lines; Homo sapiens, SK-BR-3, 96 h): 1.18 µM
IC50 (breast cancer cell lines; Homo sapiens, T47D, 96 h): 0.418 µM
GI50 (breast cancer cell lines; Homo sapiens, T47D, 96 h): 0.162 µM
IC50 (breast cancer cell lines; Homo sapiens, UACC-812, 96 h): 1.79 µM
GI50 (breast cancer cell lines; Homo sapiens, UACC-812, 96 h): 0.842 µM
IC50 (breast cancer cell lines; Homo sapiens, ZR-75-1, 96 h): 6.39 µM
GI50 (breast cancer cell lines; Homo sapiens, ZR-75-1, 96 h): 1.14 µM
IC50 (breast cancer cell lines; Homo sapiens, ZR-75-30, 96 h): 30 µM
GI50 (breast cancer cell lines; Homo sapiens, ZR-75-30, 96 h): 11.6 µM
IC50 (breast cancer cell lines; KPL-1, 96 h): 0.693 µM
GI50 (breast cancer cell lines; KPL-1, 96 h): 0.245 µM
Compound: CNC(=O)c1ccc(Nc2nc(OC3CCCC3)c3c(-c4ccc(O)cc4)c[nH]c3n2)c(OC)c1 [Compound 3, 4-((4-(cyclopentyloxy)-5-(4-hydroxyphenyl)-7H-pyrrolo[2,3-d]pyrimidin-2-yl)amino)-3-methoxy-N-methylbenzamide]
IC50 (breast cancer cell lines; Homo sapiens, HCC70, 96 h): 1.95 µM
GI50 (breast cancer cell lines; Homo sapiens, HCC70, 96 h): 0.442 µM
IC50 (breast cancer cell lines; Homo sapiens, MCF-10A, 96 h): 17.4 µM
GI50 (breast cancer cell lines; Homo sapiens, MCF-10A, 96 h): 0.426 µM
